{"source": "patent US20160058829A1", "about": "“ANTI-FIBROTIC PEPTIDES AND THEIR USE IN METHODS FOR TREATING DISEASES AND DISORDERS CHARACTERIZED BY FIBROSIS” (Thrasos Innovation, Inc., priority 2011, published 2016)", "key": {"[1]": {"system": "Alk-3 deleted mice and littermate control mice, IRI", "test": "IRI in Alk-3 deleted (γGT-Cre; Alk3 flox/flox) and control mice", "format": "in vivo", "conditions": "for renal injury (tubular necrosis), IRI: THR-123 orally 5 mg/kg/day", "method": "(§1) FIG. 76A-FIG. 76T THR-123 acts on tubule Alk3 as a receptor in kidney disease models. FIG. 76A-FIG. 76D, The effect of THR-123 on the IRI model kidney injury in Alk3^flox/flox and […]GTCre; Alk3^flox/flox mice. After ischemia reperfusion injury the mice were given THR-123 orally (5 mg/kg/day) till the day of sacrifice. FIG. 76A-FIG. 76C, the representative H&E staining picture of indicated group of mice are shown. FIG. 76D. Percentage renal tubular necrosis in IRI. Ten fields in each group were analyzed. Data are shown as mean±s.e.m. in the graph. FIG. 76E-FIG. 76T, The effect of THR-123 on the NTN model kidney injury in Alk3^flox/flox and gGTCre; Alk3^flox/flox mice. Six weeks after NTN was introduced in the indicated groups of mice, mice were treated with PBS or THR-123 orally. FIG. 76E-FIG. 76H, the representative MTS staining picture of indicated group of mice are shown. FIG. 76I, Morphometric analyses from 9 weeks of NTN models in indicated groups. FIG. 76J-FIG. 76N, Macrophage accumulation analysis in the kidney of NTN model in Alk3^flox/flox and gGTCre; Alk3^flox/flox mice. FIG. 76J-FIG. 76M, Mac-1 immunofluorescence study of indicated groups of mice. FIG. 76N, The number of macrophages per field of view (×400 magnification) was assessed by counting positively labeled cells in 5 random fields of view per slide, with 5 slides per experimental group. Data are shown as mean±s.e.m. in the graph. FIG. 76O-FIG. 76S, EMT analysis, FIG. 76O-FIG. 76R, E-cadherin/FSP1 immunolabeling of kidney in NTN-induced Alk3^flox/flox and GTCre; Alk3^flox/flox mice treated with either PBS or THR-123. FIG. 76S. Percent of E-cadherin/FSP1 double positive tubule. 500 tubules per slide, 5 slides per experimental group were analyzed. Data are expressed as mean±s.e.m. in the graph. FIG. 76T, Blood urea nitrogen measurement in 6 and 9 weeks of NTN in indicated groups of mice (all n=4).\nIschemia reperfusion injury (IRI) was induced by clamping of the left renal pedicle for 25 minutes. After ischemia reperfusion injury the mice were given THR-123 orally (5 mg/kg/day) or PBS till the day of sacrifice. FIG. 77A-FIG. 77C. Mac-1 immunofluorescence studies in the indicated groups. FIG. 77D. The number of macrophages per field of view (×400 magnification) was assessed by counting positively labeled cells in 5 random fields of view per slide, with 5 slides per experimental group.\nIschemia reperfusion injury (IRI) was induced by clamping of the left renal pedicle for 25 minutes. After ischemia reperfusion injury the mice were given THR-123 orally (5 mg/kg/day) or PBS till the day of sacrifice. FIG. 78A-FIG. 78C. Tubule cell apoptosis was analyzed in frozen kidney sections of indicated groups of animals by TUNEL staining. FIG. 78D. Quantification of TUNEL positive tubule cells. The number of TUNEL positive tubules per field of view (×200 magnification) was assessed by counting positively labeled cells in 5 random fields of view per slide, with 5 slides per experimental group.\nTHR-123 binds to Alk-3 receptor and induced actions that mimic BMP7 (vide supra). […] To functionally validate the target of THR-123 in exerting such reno-protective activity in mice, the efficacy of THR-123 in the Alk-3 deleted mice subjected to renal injury was tested (FIG. 42 K). The Alk-3 deleted mice and their littermate (control) mice were subjected to IRI.\n(§2) Alk-3 flox mice are provided by Dr. Yuji Mishina, National Institutes of Health with material transfer agreements. γGT-Cre mice are provided from Dr. Eric Neilson, Vanderbilt University Medical Center. NTN is induced by the method described above."}, "[2]": {"system": "BALB/c mice with bleomycin-induced lung fibrosis", "test": "Bleomycin (plus cyclophosphamide)-induced pulmonary fibrosis in BALB/c mice", "procedure": "The endpoints in this model are survival and histomorphometric evaluation of the extent of fibrosis in lung tissue.\nThe test compound, in lyophilized form, is dissolved in 50 mM acetate buffer, pH 4.5 at an initial concentration of 20 mg/mL. The stock solution is then divided into several one mL aliquots, snap frozen and stored at −70° C. until used. On the Day of use, each aliquot is thawed and further diluted to a required working concentration in PBS, pH 7.5. The working concentration is determined from the intended dose (mg/kg body weight) and the oral administration volume.\nIn addition, the mice are administered a single intraperitoneal injection of cyclophosphamide (150 mg/kg of body weight). The animals challenged with Bleomycin plus Cyclophosphamide are separated into two groups, each group having a minimum of 6 animals. The vehicle treated group (Group 1) receives daily oral doses of PBS, pH 7.5. […] These treatments are continued for up to 16 days after Bleomycin administration. A third control group of mice receive intra-tracheal PBS rather than Bleomycine and Cyclophosphamide.\nAfter completion of the in-life study, the animals are euthanized (methoxyflurane anesthesia), and the lungs are perfused with ice cold Hank's balanced salt solution to remove blood-born cells, and then inflated under a constant pressure of 30 cm H2O with 10% normal buffered formalin (NBF). Lungs are ligated at the trachea, removed en bloc, and immersed in NBF for 24 hr. After which, tissue samples are changed to 70% alcohol before paraffin embedding, followed by sectioning and staining with hematoxylin, eosin and Masson's Trichrome. Sections are analyzed microscopically to evaluate pulmonary fibrosis by determining the degree of collagen accumulation (Masson's Trichrome).\nPulmonary fibrosis was evaluated histomorphometricly by determining the percentage of field with collagen accumulation lung sections stained with Masson's Trichrome."}, "[3]": {"system": "mice with ischemia reperfusion injury", "test": "Ischemia reperfusion injury (IRI) in mice", "format": "in vivo", "method": "FIG. 55A-FIG. 55D The effect of THR-123 on acute tubular damage induced by ischemia reperfusion injury. Ischemia reperfusion injury (IRI) was induced by the clamping of the left renal pedicle for 25 minutes. After ischemia reperfusion injury the mice were given THR-123 orally (5 mg/kg/day) or PBS till the day of sacrifice. […] Arrows indicate necrotic tubules. FIG. 55B. […] FIG. 55C. […] Ten fields in each group were analyzed. FIG. 55D. Blood urea nitrogen estimated by quantichrome colorimetric urea assay at day 7 IRI. No difference in the all groups. PBS group (n=5) and THR-123-treated group (n=4) are analyzed. Data are shown as mean±s.e.m. in the graph.\n7B16 mice are used in this study. Mice are anesthetized with the mixture of ketamine and xylazine and the left renal pedicle clamped for 25 minutes. At same day after surgery, THR-123 (p.o. 5 mg/Kg/day) or vehicle treatments are started. At 7 days after surgery, mice are sacrificed."}, "[4]": {"system": "Alk-3 deleted mice and control mice, NTN", "test": "NTN in Alk-3 deleted (γGT-Cre; Alk3 flox/flox) and control mice", "format": "in vivo", "method": "as §1\nFIG. 79A-FIG. 79D. Tubule cell apoptosis was analyzed in frozen kidney sections of indicated groups of animals by TUNEL staining. Representative pictures were shown. FIG. 79D. Quantification of TUNEL positive tubule cells. The number of TUNEL positive tubules per field of view (×200 magnification) was assessed by counting positively labeled cells in 5 random fields of view per slide, with 5 slides per experimental group.\nas §2"}}, "note": "Positions of bridges follow the written chain, without caps; N, C: chain ends.", "data": [{"substance": "(H)-CYFDDSSNVLCKKYRS-(OH) (H-CYFDDSSNVLCKKYRS-OH; disulfide 1-11; SMILES CC(C)C[C@@H]1NC(=O)[C@H](C(C)C)NC(=O)[C@H](CC(N)=O)NC(=O)[C@H](CO)NC(=O)[C@H](CO)NC(=O)[C@H](CC(=O)O)NC(=O)[C@H](CC(=O)O)NC(=O)[C@H](Cc2ccccc2)NC(=O)[C@H](Cc2ccc(O)cc2)NC(=O)[C@@H](N)CSSC[C@@H](C(=O)N[C@@H](CCCCN)C(=O)N[C@@H](CCCCN)C(=O)N[C@@H](Cc2ccc(O)cc2)C(=O)N[C@@H](CCCNC(=N)N)C(=O)N[C@@H](CO)C(=O)O)NC1=O) [SEQ ID NO: 1]", "values": [{"measurement": "macrophage accumulation, IRI", "setting": "[1]; Alk-3 deleted mice", "result": "does not inhibit macrophage accumulation"}, {"measurement": "tubular apoptosis, IRI", "setting": "[1]; Alk-3 deleted mice", "result": "does not inhibit apoptosis"}, {"measurement": "renal injury (tubular necrosis), IRI", "setting": "[1]; Alk-3 deleted mice", "result": "does not exhibit therapeutic effect"}, {"measurement": "macrophage accumulation, IRI", "setting": "[1]; control mice", "result": "reduction in macrophage accumulation"}, {"measurement": "tubular apoptosis, IRI", "setting": "[1]; control mice", "result": "decreased tubular apoptosis"}, {"measurement": "renal injury (tubular necrosis), IRI", "setting": "[1]; control mice", "result": "inhibited renal injury"}, {"measurement": "pulmonary fibrosis (histomorphometric analysis of lung tissue)", "setting": "[2]; daily oral dose of 5 mg/kg", "result": "significantly less pulmonary fibrosis"}, {"measurement": "survival rate at 16 days", "setting": "[2]; daily oral dose of 5 mg/kg, vehicle 100% mortality by 8 days", "result": 80, "unit": "%"}, {"measurement": "lung fibrosis score (percentage of field with collagen accumulation, Masson's Trichrome)", "setting": "[2]; day 16, oral, vehicle 31% at ten days", "result": 16, "unit": "%"}, {"measurement": "survival by day 16", "setting": "[2]; oral", "result": "survival of all mice"}, {"measurement": "blood urea nitrogen at day 7 IRI", "setting": "[3]; THR-123 orally 5 mg/kg/day versus PBS", "result": "No difference"}, {"measurement": "renal tubular necrosis / tubular damage", "setting": "[3]; THR-123 orally 5 mg/kg/day, versus PBS, day 7", "result": "significantly less tubular damage"}, {"measurement": "renal function (blood urea nitrogen), NTN", "setting": "[4]; Alk3-deleted mice", "result": "not realized"}, {"measurement": "EMT program in the tubules, NTN", "setting": "[4]; Alk3 deleted mice", "result": "did not inhibit"}, {"measurement": "apoptosis, NTN kidney", "setting": "[4]; Alk3 deleted mice", "result": "no effect on apoptosis"}, {"measurement": "macrophage accumulation in the kidney, NTN", "setting": "[4]; Alk3 deleted mice", "result": "did not inhibit"}, {"measurement": "renal injury and fibrosis, NTN", "setting": "[4]; Alk-3 deleted mice", "result": "no efficacy"}, {"measurement": "EMT program in the tubules, NTN", "setting": "[4]; control mice", "result": "inhibition"}, {"measurement": "macrophage accumulation in the kidney, NTN", "setting": "[4]; control mice", "result": "inhibition"}, {"measurement": "renal function (blood urea nitrogen), NTN", "setting": "[4]; control mice", "result": "restored renal function"}, {"measurement": "renal injury and fibrosis, NTN", "setting": "[4]; control mice", "result": "successful in controlling renal injury and fibrosis"}, {"measurement": "apoptosis, NTN kidney", "setting": "[4]; wild type kidney", "result": "inhibit apoptosis"}]}]}
